Experimental data as given in US4728650A, “3,4-dihydrobenzopyran derivatives and medicinal uses thereof” (Kuraray Co., Ltd., priority 1985, dated 1988).

Legend:
[1] = Hydrochloric acid-ethanol-induced ulcer in rats; format: in vivo, Wistar rats (male)
Procedure: Male Wistar rats (body weights, 170-210 g) were used in groups of 6 to 8 animals. Indomethacin, 20 mg/kg body weight, was injected subcutaneously to rats which had been deprived of food for 24 hours. After 7 hours, the stomach was excised under ether anesthesia. A 10% aqueous solution of formaldehyde was infused into the stomach until the stomach was inflated and, then, the stomach was immersed in a 10% aqueous solution of formaldehyde for 10 minutes for fixation of the tissue. After fixation, an incision was made along the greater curvature and the length of ulcers occurring in the glandular portion of the stomach was measured. The total length of ulcers occurring in a rat was taken as an ulcer index. Each test compound was orally administered, as suspended in a gum arabic solution in concentration of 5%, to rats 10 minutes before subcutaneous injection of indomethacin. Male Wistar rats (body weights, 160-190 g) were used in groups of 6 to 8 animals. One milliliter of a 60% aqueous solution of ethanol containing 150 mM hydrochloric acid was administered orally to rats which had been deprived of food for 24 hours. After one hour, the stomach was excised under ether anesthesia. In a manner similar to that described in study for indomethacin-induced ulcer, the ulcer index was determined. Each test compound was orally administered, as suspended in a gum arabic solution in concentration of 5%, to rats 1 hour before administration of hydrochloric acid-ethanol.

[2] = Expectorant action: tracheal secretion of fluorescein sodium in rats; format: in vivo, Wistar rats (male); details: Table 15; 50 mg/kg oral; control 5.20 ± 0.78
Procedure: Male Wistar rats (body weights, 280-320 g) were used in groups of 7 animals. Each test compound was orally administered in dose of 50 mg/kg body weight to rats. Immediately after administration, 0.3 ml/100 g (body weight of rat) of a 1% aqueous solution of fluorescein sodium was injected into the caudal vein. One hour after administration of the test compound, pentobarbital sodium 100 mg/kg (body weight of rat) was injected intraperitoneally so that deep anesthesia might cause the rat to die. Then, the trachea was exposed and an incision was made in the trachea. A sonde was inserted thereinto and ligation was made. To the sonde was connected a syringe containing 10 ml of a 5% solution of sodium hydrogen carbonate kept at 37° C. and 4 ml of the solution of sodium hydrogen carbonate was injected into the lung. After 5 minutes, the fluid in the lung was removed. After this procedure of injection and removal was repeated three times, the fluid removed from the lung was filtered and the filtrate was made up with water to make 20 ml. The intensity of fluroescence was determined at the excitation wave length of 491 nm and the fluorescence wave length of 510 nm using a spectrophotometer (HITACHI model 650-10, Hitachi, Ltd.). The amount of fluorescein sodium secreted into the trachea was estimated from the intensity of fluorescence. Each test compound was administered as suspended in a gum arabic solution in concentration of 5%.

[3] = Rattus norvegicus, po, 1 h, Table 7, 25 mg/kg p.o.
[4] = Table 5, 25 mg/kg p.o., control 11.09 ± 1.49
[5] = Table 6, 25 mg/kg p.o., control 9.69 ± 1.68
[6] = Rattus norvegicus, po, 1 h, Table 7, 12.5 mg/kg p.o.
[7] = Rattus norvegicus, po, 1 h, Table 7, 50 mg/kg p.o.
[8] = Table 5, 50 mg/kg p.o., control 11.09 ± 1.49
[9] = Rattus norvegicus, po, 1 h, Table 8, 50 mg/kg p.o.
[10] = Table 8, 50 mg/kg p.o., control 9.69 ± 1.68
[11] = Rattus norvegicus, po, 1 h, Table 12, 25 mg/kg p.o.
[12] = Rattus norvegicus, po, 1 h, Table 12, 50 mg/kg p.o.
[13] = Rattus norvegicus, po, 1 h, Table 12, 100 mg/kg p.o.
[14] = Table 12, 25 mg/kg p.o., control 9.93 ± 0.91
[15] = Table 12, 50 mg/kg p.o., control 9.93 ± 0.91
[16] = Table 12, 100 mg/kg p.o., control 9.93 ± 0.91

CCOc1c(C)c(C)c2c(c1C)CCC(C)(CC(=O)NC(=N)N)O2 (stereo not drawn) [Compound (2), N-(3,4-Dihydro-6-ethoxy-2,5,7,8-tetramethyl-2H-benzopyran-2-yl)acetylguanidine]
inhibition in vivo at 25 mg/kg [1, 3]: 89% | Ulcer index (mean ± S.E.) [1, 4]: 0.50 ± 0.34 mm

CC(C)=CCOc1c(C)c(C)c2c(c1C)CCC(C)(CC(=O)NC(=N)N)O2 (stereo not drawn) [Compound (3), N-(3,4-Dihydro-6-prenyloxy-2,5,7,8-tetramethyl-2H-benzopyran-2-yl)acetylguanidine]
inhibition in vivo at 25 mg/kg [1, 3]: 98.7% | Ulcer index (mean ± S.E.) [1, 4]: 0.14 ± 0.14 mm

COc1c(C)c(C)c2c(c1C)CCC(C)(C(=O)NC(=N)N)O2 (stereo not drawn) [Compound (4), N-(3,4-Dihydro-6-methoxy-2,5,7,8-tetramethyl-2H-benzopyran-2-yl)carbonylguanidine]
inhibition in vivo at 25 mg/kg [1, 3]: 100% | Ulcer index (mean ± S.E.) [1, 5]: 0.00 ± 0.00 mm

COc1c(C)c(C)c2c(c1C)CCC(C)(CCC(=O)NC(=N)N)O2 (stereo not drawn) [Compound (5)]
inhibition in vivo at 25 mg/kg [1, 3]: 100% | Ulcer index (mean ± S.E.) [1, 4]: 0.00 ± 0.00 mm

COc1ccc2c(c1)CCC(C)(CC(=O)NC(=N)N)O2 (stereo not drawn) [Compound (6), N-(3,4-Dihydro-6-methoxy-2-methyl-2H-benzopyran-2-yl)acetylguanidine]
inhibition in vivo at 25 mg/kg [1, 3]: 79.1% | Ulcer index (mean ± S.E.) [1, 5]: 2.03 ± 1.04 mm

COc1ccc2c(c1)OC(C)(CC(=O)NC(=N)N)CC2 (stereo not drawn) [Compound (7), N-(3,4-Dihydro-7-methoxy-2-methyl-2H-benzopyran-2-yl)acetylguanidine]
inhibition in vivo at 12.5 mg/kg [1, 6]: 71.9% | inhibition in vivo at 25 mg/kg [1, 3]: 84.2% | Ulcer index (mean ± S.E.) ([1]; Table 5, 12.5 mg/kg p.o., control 11.09 ± 1.49): 3.12 ± 0.66 mm | Ulcer index (mean ± S.E.) [1, 5]: 1.53 ± 0.66 mm

CC1(CC(=O)NC(=N)N)CCc2cc(Cl)ccc2O1 (stereo not drawn) [Compound (8), N-(3,4-Dihydro-6-chloro-2-methyl-2H-benzopyran-2-yl)acetylguanidine]
inhibition in vivo at 25 mg/kg [1, 3]: 100% | Ulcer index (mean ± S.E.) [1, 5]: 0.00 ± 0.00 mm

CNC(=S)NCCC1(C)CCc2c(C)c(OC)c(C)c(C)c2O1 (stereo not drawn) [Compound (9), N-[2-(3,4-Dihydro-6-methoxy-2,5,7,8-tetramethyl-2H-benzopyran-2-yl)ethyl]-N'-methylthiourea]
inhibition in vivo at 25 mg/kg [1, 3]: 47.3% | inhibition in vivo at 50 mg/kg [1, 7]: 95.4% | Ulcer index (mean ± S.E.) [1, 4]: 5.84 ± 0.75 mm

COc1c(C)c(C)c2c(c1C)CCC(C)(CCNC(=N)N)O2 (stereo not drawn) [Compound (10), N-[2-(3,4-Dihydro-6-methoxy-2,5,7,8-tetramethyl-2H-benzopyran-2-yl)ethyl]guanidine]
inhibition in vivo at 50 mg/kg [1, 7]: 72.6% | Ulcer index (mean ± S.E.) [1, 8]: 3.04 ± 1.33 mm

CNC(=N)NCCC1(C)CCc2c(C)c(OC)c(C)c(C)c2O1 (stereo not drawn) [Compound (11), N-[2-(3,4-Dihydro-6-methoxy-2,5,7,8-tetramethyl-2H-benzopyran-2-yl)ethyl]-N'-methylguanidine]
inhibition in vivo at 50 mg/kg [1, 7]: 98.2% | Ulcer index (mean ± S.E.) [1, 8]: 0.20 ± 0.14 mm

COc1c(C)c(C)c2c(c1C)CCC(C)(CCN1CCNCC1)O2 (stereo not drawn) [Compound (12), 3,4-Dihydro-6-methoxy-2-[2-(piperazin-1-yl)ethyl]-2,5,7,8-tetramethyl-2H-benzopyran]
inhibition in vivo at 25 mg/kg ([1]; Rattus norvegicus, po, 1 h, Table 8, 25 mg/kg p.o.): 98.7% | inhibition in vivo at 50 mg/kg [1, 9]: 100% | Ulcer index (mean ± S.E.) ([1]; Table 8, 25 mg/kg p.o., control 9.69 ± 1.68): 0.13 ± 0.13 mm | Ulcer index (mean ± S.E.) [1, 10]: 0.00 ± 0.00 mm

COc1c(C)c(C)c2c(c1C)CCC(C)(CCN1CCN(CC=C(C)C)CC1)O2 (stereo not drawn) [Compound (13), 3,4-Dihydro-6-methoxy-2-[2-[4-(3-methyl-2-butenyl)piperazin-1-yl]ethyl]-2,5,7,8-tetramethyl-2H-benzopyran]
inhibition in vivo at 50 mg/kg [1, 9]: 100% | Ulcer index (mean ± S.E.) [1, 10]: 0.00 ± 0.00 mm

COc1c(C)c(C)c2c(c1C)CCC(C)(CCN1CCN(CC=C(C)CCC=C(C)C)CC1)O2 (stereo not drawn) [Compound (14), 3,4-Dihydro-6-methoxy-2-[2-[4-(3,7-dimethyl-2,6-octadienyl)piperazin-1-yl]ethyl]-2,5,7,8-tetramethyl-2H-benzopyran]
inhibition in vivo at 50 mg/kg [1, 9]: 100% | Ulcer index (mean ± S.E.) [1, 10]: 0.00 ± 0.00 mm

COc1c(C)c(C)c2c(c1C)CCC(C)(CCN1CCN(CC=C(C)CCC=C(C)CCC=C(C)C)CC1)O2 (stereo not drawn) [Compound (15), 3,4-Dihydro-6-methoxy-2-[2-[4-(3,7,11-trimethyl-2,6,10-dodecatrienyl)piperazin-1-yl]ethyl]-2,5,7,8-tetramethyl-2H-benzopyran]
inhibition in vivo at 50 mg/kg [1, 9]: 100% | Ulcer index (mean ± S.E.) [1, 10]: 0.00 ± 0.00 mm

COc1cc(CN2CCN(CCC3(C)CCc4c(C)c(OC)c(C)c(C)c4O3)CC2)cc(OC)c1OC (stereo not drawn) [Compound (18), 3,4-Dihydro-6-methoxy-2-[2-[4-(3,4,5-trimethoxybenzyl)piperazin-1-yl]ethyl]-2,5,7,8-tetramethyl-2H-benzopyran]
inhibition in vivo at 50 mg/kg ([1]; Rattus norvegicus, po, 1 h, Table 10, 50 mg/kg p.o.): 83.2% | Ulcer index (mean ± S.E.) ([1]; Table 10, 50 mg/kg p.o., control 5.98 ± 1.96): 0.98 ± 0.98 mm

COc1c(C)c(C)c2c(c1C)CCC(C)(CCN1CCN(C(=O)c3ccc(N(C)C)cc3)CC1)O2 (stereo not drawn) [Compound (20), 1-[2-(3,4-Dihydro-6-methoxy-2,5,7,8-tetramethyl-2H-benzopyran-2-yl)ethyl]-4-(4-dimethylaminobenzoyl)piperazine]
Secretory amount (mean ± S.E.) [2]: 8.72 ± 1.45 μg/100 g (body weight of rat)/

COc1c(C)c(C)c2c(c1C)CCC(C)(CCN1CCN(C(=O)c3ccc([N+](=O)[O-])cc3)CC1)O2 (stereo not drawn) [Compound (21), 1-[2-(3,4-Dihydro-6-methoxy-2,5,7,8-tetramethyl-2H-benzopyran-2-yl)ethyl]-4-(4-nitrobenzoyl)piperazine]
Secretory amount (mean ± S.E.) [2]: 5.89 ± 0.40 μg/100 g (body weight of rat)/

COc1c(C)c(C)c2c(c1C)CCC(C)(CCN1CCN(C(=O)c3ccc(Br)cc3)CC1)O2 (stereo not drawn) [Compound (22), 1-[2-(3,4-Dihydro-6-methoxy-2,5,7,8-tetramethyl-2H-benzopyran-2-yl)ethyl]-4-(4-bromobenzoyl)piperazine]
Secretory amount (mean ± S.E.) [2]: 6.26 ± 0.32 μg/100 g (body weight of rat)/

COc1c(C)c(C)c2c(c1C)CCC(C)(CCN1CCN(C(=O)c3ccncc3)CC1)O2 (stereo not drawn) [Compound (23), 1-[2-(3,4-Dihydro-6-methoxy-2,5,7,8-tetramethyl-2H-benzopyran-2-yl)ethyl]-4-(4-pyridylcarbonyl)piperazine]
Secretory amount (mean ± S.E.) [2]: 8.16 ± 1.03 μg/100 g (body weight of rat)/

CC(C)=CCOc1ccc(/C=C/C(=O)c2ccc(OCC=C(C)C)cc2OCC(=O)O)cc1 [Sofalcone, 2'-carboxymethoxy-4,4'-bis(3-methyl-2-butenyloxy)calcon, reference compound]
inhibition in vivo at 25 mg/kg [1, 11]: 25.8% | inhibition in vivo at 25 mg/kg [1, 3]: 25.8% | inhibition in vivo at 50 mg/kg [1, 7]: 38.3% | inhibition in vivo at 50 mg/kg [1, 12]: 38.3% | inhibition in vivo at 100 mg/kg [1, 13]: 39.8% | inhibition in vivo at 300 mg/kg ([1]; Rattus norvegicus, po, 1 h, Table 12, 300 mg/kg p.o.): 100% | Ulcer index (mean ± S.E.) [1, 14]: 7.37 ± 0.54 mm | Ulcer index (mean ± S.E.) [1, 15]: 6.13 ± 0.91 mm | Ulcer index (mean ± S.E.) [1, 16]: 5.98 ± 1.04 mm | Ulcer index (mean ± S.E.) ([1]; Table 12, 300 mg/kg p.o., control 9.93 ± 0.91): 0.00 ± 0.00 mm

CC(=O)CCC=C(C)CC/C=C(\C)CC/C=C(\C)CCC=C(C)C [Teprenone, reference compound]
inhibition in vivo at 25 mg/kg [1, 11]: 78.4% | inhibition in vivo at 12.5 mg/kg [1, 6]: 33.8% | inhibition in vivo at 25 mg/kg [1, 3]: 78.4% | inhibition in vivo at 50 mg/kg [1, 12]: 91.4% | inhibition in vivo at 100 mg/kg [1, 13]: 96.3% | Ulcer index (mean ± S.E.) [1, 14]: 2.15 ± 1.26 mm | Ulcer index (mean ± S.E.) [1, 15]: 0.85 ± 0.61 mm | Ulcer index (mean ± S.E.) [1, 16]: 0.37 ± 0.37 mm
